Values of other authors as cited in patent publication US9328386B2, “Markers for susceptibility to an inhibitor of an Src-family kinase” (Evotec (München) GmbH, priority 2011, dated 2016).

Legend:
[1] = tested on: VEGFR; conditions: cited from earlier work
[2] = target: FGFR1 (Homo sapiens, UniProt P11362); conditions: cited from earlier work
[3] = target: EGFR (Homo sapiens, UniProt P00533); conditions: cited from earlier work
[4] = target: YES (Homo sapiens, UniProt P07947); conditions: unit not given; cited from earlier work
Sequence of YES (P07947 whole entry, species assumed): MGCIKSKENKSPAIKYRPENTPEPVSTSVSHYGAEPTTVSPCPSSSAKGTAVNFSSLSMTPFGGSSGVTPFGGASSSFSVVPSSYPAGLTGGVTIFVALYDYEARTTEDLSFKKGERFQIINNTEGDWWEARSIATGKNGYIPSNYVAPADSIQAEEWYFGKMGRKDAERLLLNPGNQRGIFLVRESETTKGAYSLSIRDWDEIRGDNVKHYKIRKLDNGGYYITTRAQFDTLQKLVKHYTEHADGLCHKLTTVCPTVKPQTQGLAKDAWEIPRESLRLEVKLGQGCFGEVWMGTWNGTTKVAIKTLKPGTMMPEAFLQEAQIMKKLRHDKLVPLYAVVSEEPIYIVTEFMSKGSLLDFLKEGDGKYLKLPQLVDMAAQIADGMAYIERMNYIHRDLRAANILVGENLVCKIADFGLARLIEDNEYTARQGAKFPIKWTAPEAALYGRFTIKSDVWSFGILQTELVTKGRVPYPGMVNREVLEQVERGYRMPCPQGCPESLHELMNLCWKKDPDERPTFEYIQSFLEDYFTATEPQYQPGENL

[5] = target: SRC (Homo sapiens, UniProt P12931); conditions: cited from earlier work
[6] = target: CSK (Homo sapiens, UniProt P41240); conditions: cited from earlier work
Sequence of CSK (P41240 whole entry, species assumed): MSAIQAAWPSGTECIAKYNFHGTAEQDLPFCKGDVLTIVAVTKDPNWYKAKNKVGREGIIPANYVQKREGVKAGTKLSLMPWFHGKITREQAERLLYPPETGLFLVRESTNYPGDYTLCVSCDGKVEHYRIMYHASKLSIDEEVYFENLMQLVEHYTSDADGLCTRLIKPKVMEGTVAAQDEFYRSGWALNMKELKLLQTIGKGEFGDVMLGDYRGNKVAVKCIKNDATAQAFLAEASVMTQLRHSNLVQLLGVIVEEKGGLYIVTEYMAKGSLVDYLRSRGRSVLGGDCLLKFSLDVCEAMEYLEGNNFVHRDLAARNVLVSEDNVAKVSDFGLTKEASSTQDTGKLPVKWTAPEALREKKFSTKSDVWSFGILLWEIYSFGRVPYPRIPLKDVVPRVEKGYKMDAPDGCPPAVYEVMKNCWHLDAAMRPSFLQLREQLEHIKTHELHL

[7] = target: LCK (Homo sapiens, UniProt P06239); conditions: cited from earlier work
Sequence of LCK (P06239 whole entry, species assumed): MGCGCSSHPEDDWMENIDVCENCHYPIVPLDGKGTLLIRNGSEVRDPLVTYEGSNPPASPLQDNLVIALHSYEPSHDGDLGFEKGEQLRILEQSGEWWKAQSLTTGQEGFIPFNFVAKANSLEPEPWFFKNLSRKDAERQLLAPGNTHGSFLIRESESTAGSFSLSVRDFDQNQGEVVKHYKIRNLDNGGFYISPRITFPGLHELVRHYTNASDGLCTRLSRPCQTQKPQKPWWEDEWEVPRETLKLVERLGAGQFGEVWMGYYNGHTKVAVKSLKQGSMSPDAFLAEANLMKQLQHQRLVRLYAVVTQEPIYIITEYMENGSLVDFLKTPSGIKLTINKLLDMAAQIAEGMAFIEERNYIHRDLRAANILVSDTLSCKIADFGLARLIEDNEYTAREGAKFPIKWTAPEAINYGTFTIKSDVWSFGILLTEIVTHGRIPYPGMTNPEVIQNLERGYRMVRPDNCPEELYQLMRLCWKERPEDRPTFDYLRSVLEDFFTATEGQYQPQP

[8] = target: MET (Homo sapiens, UniProt P08581); conditions: cited from earlier work
Sequence of MET (P08581 25-1390): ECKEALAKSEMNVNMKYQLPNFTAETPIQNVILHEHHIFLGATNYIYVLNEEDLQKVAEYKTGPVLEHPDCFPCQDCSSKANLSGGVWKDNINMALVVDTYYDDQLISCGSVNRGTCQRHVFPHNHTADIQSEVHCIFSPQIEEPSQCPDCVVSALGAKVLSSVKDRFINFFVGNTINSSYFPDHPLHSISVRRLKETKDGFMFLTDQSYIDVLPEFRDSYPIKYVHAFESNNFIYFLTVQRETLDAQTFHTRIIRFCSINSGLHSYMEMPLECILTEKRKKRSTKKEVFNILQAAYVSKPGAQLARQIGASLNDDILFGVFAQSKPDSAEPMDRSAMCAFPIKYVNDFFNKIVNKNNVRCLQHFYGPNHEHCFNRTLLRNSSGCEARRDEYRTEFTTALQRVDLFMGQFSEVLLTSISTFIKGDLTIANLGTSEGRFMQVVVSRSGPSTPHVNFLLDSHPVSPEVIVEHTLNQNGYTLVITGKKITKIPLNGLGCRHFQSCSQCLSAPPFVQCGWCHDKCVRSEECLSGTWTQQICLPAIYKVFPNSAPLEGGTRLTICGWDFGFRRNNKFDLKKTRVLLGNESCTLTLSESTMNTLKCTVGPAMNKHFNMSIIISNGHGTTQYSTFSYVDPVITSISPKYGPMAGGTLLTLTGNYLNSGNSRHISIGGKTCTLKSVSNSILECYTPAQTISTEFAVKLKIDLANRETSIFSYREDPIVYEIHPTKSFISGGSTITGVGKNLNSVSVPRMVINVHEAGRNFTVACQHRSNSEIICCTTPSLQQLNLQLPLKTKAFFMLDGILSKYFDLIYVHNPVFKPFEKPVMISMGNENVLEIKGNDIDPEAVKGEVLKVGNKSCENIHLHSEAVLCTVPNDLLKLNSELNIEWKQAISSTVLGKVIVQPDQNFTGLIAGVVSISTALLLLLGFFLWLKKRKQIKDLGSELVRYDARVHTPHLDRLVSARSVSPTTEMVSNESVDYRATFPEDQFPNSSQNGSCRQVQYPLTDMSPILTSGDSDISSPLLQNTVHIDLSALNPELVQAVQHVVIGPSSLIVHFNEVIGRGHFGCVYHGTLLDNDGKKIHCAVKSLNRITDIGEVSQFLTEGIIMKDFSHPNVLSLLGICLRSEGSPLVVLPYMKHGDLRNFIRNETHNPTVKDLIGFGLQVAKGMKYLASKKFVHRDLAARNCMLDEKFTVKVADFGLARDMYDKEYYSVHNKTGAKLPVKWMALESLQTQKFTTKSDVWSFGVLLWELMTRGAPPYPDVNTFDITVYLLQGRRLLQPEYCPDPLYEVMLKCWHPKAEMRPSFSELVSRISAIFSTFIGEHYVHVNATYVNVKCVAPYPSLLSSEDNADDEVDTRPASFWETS

[9] = tested on: SFK; conditions: cited from earlier work

Sequence of FGFR1 (P11362 22-822, species assumed): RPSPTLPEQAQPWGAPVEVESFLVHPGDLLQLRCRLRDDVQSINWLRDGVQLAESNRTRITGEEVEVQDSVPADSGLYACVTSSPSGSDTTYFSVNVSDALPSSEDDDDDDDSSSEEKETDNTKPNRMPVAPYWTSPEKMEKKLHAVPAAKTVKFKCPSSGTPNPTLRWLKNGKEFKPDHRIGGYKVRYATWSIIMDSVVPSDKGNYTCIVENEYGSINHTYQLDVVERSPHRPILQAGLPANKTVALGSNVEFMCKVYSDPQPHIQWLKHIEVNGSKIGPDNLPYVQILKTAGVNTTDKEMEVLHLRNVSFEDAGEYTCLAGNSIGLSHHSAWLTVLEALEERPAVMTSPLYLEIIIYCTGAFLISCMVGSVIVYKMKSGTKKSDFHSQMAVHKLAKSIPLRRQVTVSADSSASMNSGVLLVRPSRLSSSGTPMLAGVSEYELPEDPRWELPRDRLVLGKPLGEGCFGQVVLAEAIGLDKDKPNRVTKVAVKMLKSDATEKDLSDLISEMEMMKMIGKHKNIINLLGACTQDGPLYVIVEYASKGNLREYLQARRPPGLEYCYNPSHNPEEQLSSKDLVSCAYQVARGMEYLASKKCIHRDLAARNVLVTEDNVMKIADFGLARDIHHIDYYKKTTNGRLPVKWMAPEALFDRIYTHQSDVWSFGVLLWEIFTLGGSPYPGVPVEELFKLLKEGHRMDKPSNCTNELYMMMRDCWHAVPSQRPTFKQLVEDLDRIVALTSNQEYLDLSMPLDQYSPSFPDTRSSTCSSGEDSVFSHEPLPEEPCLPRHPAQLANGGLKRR
Sequence of EGFR (P00533 25-1210, species assumed): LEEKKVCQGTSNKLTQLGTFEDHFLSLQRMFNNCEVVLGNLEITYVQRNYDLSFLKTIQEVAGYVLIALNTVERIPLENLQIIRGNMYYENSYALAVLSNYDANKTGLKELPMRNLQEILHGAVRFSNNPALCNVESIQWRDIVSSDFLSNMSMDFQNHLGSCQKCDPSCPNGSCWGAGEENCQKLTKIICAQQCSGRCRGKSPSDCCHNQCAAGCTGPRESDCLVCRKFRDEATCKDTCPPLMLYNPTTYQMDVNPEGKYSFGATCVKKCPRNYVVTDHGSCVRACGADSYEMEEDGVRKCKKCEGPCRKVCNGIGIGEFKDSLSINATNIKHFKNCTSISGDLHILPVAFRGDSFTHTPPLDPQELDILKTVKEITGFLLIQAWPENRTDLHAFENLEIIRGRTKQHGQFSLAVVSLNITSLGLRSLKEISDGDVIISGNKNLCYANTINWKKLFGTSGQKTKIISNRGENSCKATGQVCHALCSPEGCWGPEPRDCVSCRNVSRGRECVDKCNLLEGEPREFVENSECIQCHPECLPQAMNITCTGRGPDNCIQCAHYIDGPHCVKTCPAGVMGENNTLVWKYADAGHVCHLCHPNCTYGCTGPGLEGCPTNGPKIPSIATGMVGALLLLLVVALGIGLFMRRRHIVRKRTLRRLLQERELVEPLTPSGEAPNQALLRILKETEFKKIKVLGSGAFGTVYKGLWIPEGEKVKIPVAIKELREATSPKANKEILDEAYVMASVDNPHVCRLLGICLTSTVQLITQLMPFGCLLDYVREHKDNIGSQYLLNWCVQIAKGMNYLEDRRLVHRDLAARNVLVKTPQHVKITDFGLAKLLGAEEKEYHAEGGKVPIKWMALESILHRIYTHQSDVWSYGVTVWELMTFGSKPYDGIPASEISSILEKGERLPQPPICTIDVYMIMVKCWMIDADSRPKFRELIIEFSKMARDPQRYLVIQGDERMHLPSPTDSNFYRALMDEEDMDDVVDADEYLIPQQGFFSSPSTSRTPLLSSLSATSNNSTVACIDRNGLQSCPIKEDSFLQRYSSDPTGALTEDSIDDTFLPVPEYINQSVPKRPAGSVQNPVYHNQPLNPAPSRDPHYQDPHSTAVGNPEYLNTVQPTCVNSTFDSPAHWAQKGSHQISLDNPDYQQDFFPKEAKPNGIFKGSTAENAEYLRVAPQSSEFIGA

Compound: COc1ccc(Cl)c(Nc2ncnc3cc(OCC4CCN(C)CC4)c(OC)cc23)c1 [M475271, 4-quinazolinamine, N-(2-chloro-5-methoxyphenyl)-6-methoxy-7-[(1-methyl-4-piperidinyl)methoxy]-(9Cl)]
- Affinities (basic outline) [1]: 500 nM
- Affinities (basic outline) [2]: 20 µM
- Affinities (basic outline) [3]: 600 nM
- Affinities (basic outline) [4]: 10
- Affinities (basic outline) [5]: 25 nM
- Affinities (basic outline) [6]: 7.6 µM
- Affinities (basic outline) [7]: 200 nM

Compound: CN(C)S(=O)(=O)c1ccc2c(c1)/C(=C/c1cc3c([nH]1)CCCC3)C(=O)N2 [SU6656, (2-oxo-3-(4,5,6,7-tetrahydro-1H-indol-2-ylmethylene)-2,3-dihydro-1H-indole-5-sulfonic acid dimethylamide)]
- Affinities (basic outline) [8]: 3 nM
- Affinities (basic outline) [9]: 0.02 to 6.88 nM
- Affinities (basic outline) [6]: 0.007 µM
